Test results reported in patent US8946273B2, “S-Triazolyl alpha-mercapto acetanilides as inhibitors of HIV reverse transcriptase” (priority 2011, dated 2015).

The compounds below were run on wild type HIV-1 (assay: microbe, parasite or virus in culture). Conditions: Human immunodeficiency virus 1, Hela-JC53, read-out: EC50 WT.
Type: cell-based, human immunodeficiency virus type 1 (HIV-1)
`CCc1ccc(-n2c(Br)nnc2SCC(=O)Nc2ccc(C(=O)NCC3CCCCC3)cc2Cl)c2ccccc12` [compound 124] was tested, and the EC50 was < 50 nM. With `CCc1ccc(-n2c(Br)nnc2SCC(=O)Nc2ccc(C(=O)NCC3CCCO3)cc2Cl)c2ccccc12` (stereo not drawn) [compound 125] the EC50 was < 50 nM. For `CCOC(=O)N1CCC(NC(=O)c2ccc(NC(=O)CSc3nnc(Br)n3-c3ccc(CC)c4ccccc34)c(Cl)c2)CC1` [compound 126], the EC50 was < 50 nM. For `CCc1ccc(-n2c(Br)nnc2SCC(=O)Nc2ccc(C(=O)NCCOC)cc2Cl)c2ccccc12` [compound 127], the EC50 was < 50 nM. In the case of `CCc1ccc(-n2c(Br)nnc2SCC(=O)Nc2ccc(C(=O)NCC(C)O)cc2Cl)c2ccccc12` (stereo not drawn) [compound 128], the EC50 is reported as < 50 nM. In the case of `CC(C)OC(=O)CNC(=O)c1ccc(NC(=O)CSc2nnc(Br)n2-c2ccc(C3CC3)c3ccccc23)c(Cl)c1` [compound 129], the EC50 is reported as < 50 nM. `CCc1ccc(-n2c(Br)nnc2SCC(=O)Nc2ccc(C(=O)NCCC#N)cc2Cl)c2ccccc12` [compound 130] was tested, and the EC50 was < 50 nM. In the case of `CCNC(=O)c1ccc(NC(=O)CSc2nnc(Br)n2-c2ccc(CC)c3ccccc23)c(Cl)c1` [compound 131], the EC50 is reported as < 50 nM. In the case of `CCc1ccc(-n2c(Br)nnc2SCC(=O)Nc2ccc(C(=O)NCCO)cc2Cl)c2ccccc12` [compound 132], the EC50 is reported as < 50 nM. `CCc1ccc(-n2c(Br)nnc2SCC(=O)Nc2ccc(C(=O)N3CCCCC3CO)cc2Cl)c2ccccc12` (stereo not drawn) [compound 133] was tested, and the EC50 was < 50 nM. In the case of `CCc1ccc(-n2c(Br)nnc2SCC(=O)Nc2ccc(C(=O)N3CCC(O)CC3)cc2Cl)c2ccccc12` [compound 134], the EC50 is reported as < 50 nM. `CC[C@H](C)[C@H](NC(=O)c1ccc(NC(=O)CSc2nnc(Br)n2-c2ccc(C3CC3)c3ccccc23)c(Cl)c1)C(=O)O` [compound 135] was tested, and the EC50 was < 50 nM. For `CCc1ccc(-n2c(Br)nnc2SCC(=O)Nc2ccc(C(=O)NCC(C)(C)N)cc2Cl)c2ccccc12` [compound 136], the EC50 was < 50 nM. With `CCc1ccc(-n2c(Br)nnc2SCC(=O)Nc2ccc(C(=O)NCCCCO)cc2Cl)c2ccccc12` [compound 137] the EC50 was < 50 nM. In the case of `CCc1ccc(-n2c(Br)nnc2SCC(=O)Nc2ccc(C(=O)N3CCC(CN)CC3)cc2Cl)c2ccccc12` [compound 138], the EC50 is reported as < 50 nM. `CCc1ccc(-n2c(Br)nnc2SCC(=O)Nc2ccc(C(=O)NCC3CCNCC3)cc2Cl)c2ccccc12` [compound 139] was tested, and the EC50 was < 50 nM. For `CCc1ccc(-n2c(Br)nnc2SCC(=O)Nc2ccc(C(=O)N[C@@H](CO)C(=O)OC)cc2Cl)c2ccccc12` [compound 140], the EC50 was < 50 nM. With `Cc1cc(S(N)(=O)=O)ccc1NC(=O)C(C)Sc1nnc(Br)n1-c1c(C)ccc2ccccc12` (stereo not drawn) [compound 142] the EC50 was < 50 nM.

These compounds were tested against T1, wild-type HIV reverse transcriptase (Human immunodeficiency virus type 1 group M subtype B, UniProt P04585) (assay: Activity on wild type reverse transcriptase (Table 1 IC50 WT)). Conditions: not given.
T1 construct: wild-type and four mutant HIV reverse transcriptases
Type: biochemical
With `CCc1ccc(-n2c(Br)nnc2SCC(=O)Nc2ccc(C(=O)NCC3CCCCC3)cc2Cl)c2ccccc12` [compound 124] the IC50 was < 50 nM. With `CCc1ccc(-n2c(Br)nnc2SCC(=O)Nc2ccc(C(=O)NCC3CCCO3)cc2Cl)c2ccccc12` (stereo not drawn) [compound 125] the IC50 was < 50 nM. `CCOC(=O)N1CCC(NC(=O)c2ccc(NC(=O)CSc3nnc(Br)n3-c3ccc(CC)c4ccccc34)c(Cl)c2)CC1` [compound 126] was tested, and the IC50 was < 50 nM. In the case of `CCc1ccc(-n2c(Br)nnc2SCC(=O)Nc2ccc(C(=O)NCCOC)cc2Cl)c2ccccc12` [compound 127], the IC50 is reported as < 50 nM. `CCc1ccc(-n2c(Br)nnc2SCC(=O)Nc2ccc(C(=O)NCC(C)O)cc2Cl)c2ccccc12` (stereo not drawn) [compound 128] was tested, and the IC50 was < 50 nM. For `CC(C)OC(=O)CNC(=O)c1ccc(NC(=O)CSc2nnc(Br)n2-c2ccc(C3CC3)c3ccccc23)c(Cl)c1` [compound 129], the IC50 was < 50 nM. In the case of `CCc1ccc(-n2c(Br)nnc2SCC(=O)Nc2ccc(C(=O)NCCC#N)cc2Cl)c2ccccc12` [compound 130], the IC50 is reported as < 50 nM. `CCNC(=O)c1ccc(NC(=O)CSc2nnc(Br)n2-c2ccc(CC)c3ccccc23)c(Cl)c1` [compound 131] was tested, and the IC50 was < 50 nM. In the case of `CCc1ccc(-n2c(Br)nnc2SCC(=O)Nc2ccc(C(=O)NCCO)cc2Cl)c2ccccc12` [compound 132], the IC50 is reported as < 50 nM. In the case of `CCc1ccc(-n2c(Br)nnc2SCC(=O)Nc2ccc(C(=O)N3CCCCC3CO)cc2Cl)c2ccccc12` (stereo not drawn) [compound 133], the IC50 is reported as < 50 nM. In the case of `CCc1ccc(-n2c(Br)nnc2SCC(=O)Nc2ccc(C(=O)N3CCC(O)CC3)cc2Cl)c2ccccc12` [compound 134], the IC50 is reported as < 50 nM. `CC[C@H](C)[C@H](NC(=O)c1ccc(NC(=O)CSc2nnc(Br)n2-c2ccc(C3CC3)c3ccccc23)c(Cl)c1)C(=O)O` [compound 135] was tested, and the IC50 was < 50 nM. `CCc1ccc(-n2c(Br)nnc2SCC(=O)Nc2ccc(C(=O)NCC(C)(C)N)cc2Cl)c2ccccc12` [compound 136] was tested, and the IC50 was < 50 nM. For `CCc1ccc(-n2c(Br)nnc2SCC(=O)Nc2ccc(C(=O)NCCCCO)cc2Cl)c2ccccc12` [compound 137], the IC50 was < 50 nM. For `CCc1ccc(-n2c(Br)nnc2SCC(=O)Nc2ccc(C(=O)N3CCC(CN)CC3)cc2Cl)c2ccccc12` [compound 138], the IC50 was < 50 nM. In the case of `CCc1ccc(-n2c(Br)nnc2SCC(=O)Nc2ccc(C(=O)NCC3CCNCC3)cc2Cl)c2ccccc12` [compound 139], the IC50 is reported as > 100 nM. With `CCc1ccc(-n2c(Br)nnc2SCC(=O)Nc2ccc(C(=O)N[C@@H](CO)C(=O)OC)cc2Cl)c2ccccc12` [compound 140] the IC50 was < 50 nM. In the case of `Cc1cc(S(N)(=O)=O)ccc1NC(=O)C(C)Sc1nnc(Br)n1-c1c(C)ccc2ccccc12` (stereo not drawn) [compound 142], the IC50 is reported as < 50 nM.

These compounds were tested against mutant HIV reverse transcriptases (Human immunodeficiency virus type 1, UniProt P12497, Y768C, cells depend on it) (assay: not given). Conditions: not given.
Type: cell-based
In the case of `CCc1ccc(-n2c(Br)nnc2SCC(=O)Nc2ccc(C(=O)NCC3CCCCC3)cc2Cl)c2ccccc12` [compound 124], the EC50 is reported as < 50 nM. `CCc1ccc(-n2c(Br)nnc2SCC(=O)Nc2ccc(C(=O)NCC3CCCO3)cc2Cl)c2ccccc12` (stereo not drawn) [compound 125] was tested, and the EC50 was < 50 nM. For `CCOC(=O)N1CCC(NC(=O)c2ccc(NC(=O)CSc3nnc(Br)n3-c3ccc(CC)c4ccccc34)c(Cl)c2)CC1` [compound 126], the EC50 was < 50 nM. In the case of `CCc1ccc(-n2c(Br)nnc2SCC(=O)Nc2ccc(C(=O)NCCOC)cc2Cl)c2ccccc12` [compound 127], the EC50 is reported as < 50 nM. In the case of `CCc1ccc(-n2c(Br)nnc2SCC(=O)Nc2ccc(C(=O)NCC(C)O)cc2Cl)c2ccccc12` (stereo not drawn) [compound 128], the EC50 is reported as < 50 nM. `CC(C)OC(=O)CNC(=O)c1ccc(NC(=O)CSc2nnc(Br)n2-c2ccc(C3CC3)c3ccccc23)c(Cl)c1` [compound 129] was tested, and the EC50 was < 50 nM. In the case of `CCc1ccc(-n2c(Br)nnc2SCC(=O)Nc2ccc(C(=O)NCCC#N)cc2Cl)c2ccccc12` [compound 130], the EC50 is reported as < 50 nM. For `CCNC(=O)c1ccc(NC(=O)CSc2nnc(Br)n2-c2ccc(CC)c3ccccc23)c(Cl)c1` [compound 131], the EC50 was < 50 nM. For `CCc1ccc(-n2c(Br)nnc2SCC(=O)Nc2ccc(C(=O)NCCO)cc2Cl)c2ccccc12` [compound 132], the EC50 was < 50 nM. `CCc1ccc(-n2c(Br)nnc2SCC(=O)Nc2ccc(C(=O)N3CCCCC3CO)cc2Cl)c2ccccc12` (stereo not drawn) [compound 133] was tested, and the EC50 was < 50 nM. `CCc1ccc(-n2c(Br)nnc2SCC(=O)Nc2ccc(C(=O)N3CCC(O)CC3)cc2Cl)c2ccccc12` [compound 134] was tested, and the EC50 was < 50 nM. For `CC[C@H](C)[C@H](NC(=O)c1ccc(NC(=O)CSc2nnc(Br)n2-c2ccc(C3CC3)c3ccccc23)c(Cl)c1)C(=O)O` [compound 135], the EC50 was < 50 nM. In the case of `CCc1ccc(-n2c(Br)nnc2SCC(=O)Nc2ccc(C(=O)NCC(C)(C)N)cc2Cl)c2ccccc12` [compound 136], the EC50 is reported as < 50 nM. For `CCc1ccc(-n2c(Br)nnc2SCC(=O)Nc2ccc(C(=O)NCCCCO)cc2Cl)c2ccccc12` [compound 137], the EC50 was < 50 nM. In the case of `CCc1ccc(-n2c(Br)nnc2SCC(=O)Nc2ccc(C(=O)N3CCC(CN)CC3)cc2Cl)c2ccccc12` [compound 138], the EC50 is reported as < 50 nM. `CCc1ccc(-n2c(Br)nnc2SCC(=O)Nc2ccc(C(=O)NCC3CCNCC3)cc2Cl)c2ccccc12` [compound 139] was tested, and the EC50 was < 50 nM. With `CCc1ccc(-n2c(Br)nnc2SCC(=O)Nc2ccc(C(=O)N[C@@H](CO)C(=O)OC)cc2Cl)c2ccccc12` [compound 140] the EC50 was < 50 nM. In the case of `Cc1cc(S(N)(=O)=O)ccc1NC(=O)C(C)Sc1nnc(Br)n1-c1c(C)ccc2ccccc12` (stereo not drawn) [compound 142], the EC50 is reported as < 50 nM.

Each compound was assayed against mutant HIV reverse transcriptases (Human immunodeficiency virus type 1, UniProt P12497, Y775L, cells depend on it) (assay: not given). Conditions: not given.
Type: cell-based
For `CCc1ccc(-n2c(Br)nnc2SCC(=O)Nc2ccc(C(=O)NCC3CCCCC3)cc2Cl)c2ccccc12` [compound 124], the EC50 was < 50 nM. With `CCc1ccc(-n2c(Br)nnc2SCC(=O)Nc2ccc(C(=O)NCC3CCCO3)cc2Cl)c2ccccc12` (stereo not drawn) [compound 125] the EC50 was < 50 nM. In the case of `CCOC(=O)N1CCC(NC(=O)c2ccc(NC(=O)CSc3nnc(Br)n3-c3ccc(CC)c4ccccc34)c(Cl)c2)CC1` [compound 126], the EC50 is reported as < 50 nM. In the case of `CCc1ccc(-n2c(Br)nnc2SCC(=O)Nc2ccc(C(=O)NCCOC)cc2Cl)c2ccccc12` [compound 127], the EC50 is reported as < 50 nM. In the case of `CCc1ccc(-n2c(Br)nnc2SCC(=O)Nc2ccc(C(=O)NCC(C)O)cc2Cl)c2ccccc12` (stereo not drawn) [compound 128], the EC50 is reported as < 50 nM. With `CC(C)OC(=O)CNC(=O)c1ccc(NC(=O)CSc2nnc(Br)n2-c2ccc(C3CC3)c3ccccc23)c(Cl)c1` [compound 129] the EC50 was < 50 nM. `CCc1ccc(-n2c(Br)nnc2SCC(=O)Nc2ccc(C(=O)NCCC#N)cc2Cl)c2ccccc12` [compound 130] was tested, and the EC50 was < 50 nM. `CCNC(=O)c1ccc(NC(=O)CSc2nnc(Br)n2-c2ccc(CC)c3ccccc23)c(Cl)c1` [compound 131] was tested, and the EC50 was < 50 nM. With `CCc1ccc(-n2c(Br)nnc2SCC(=O)Nc2ccc(C(=O)NCCO)cc2Cl)c2ccccc12` [compound 132] the EC50 was < 50 nM. For `CCc1ccc(-n2c(Br)nnc2SCC(=O)Nc2ccc(C(=O)N3CCCCC3CO)cc2Cl)c2ccccc12` (stereo not drawn) [compound 133], the EC50 was < 50 nM. For `CCc1ccc(-n2c(Br)nnc2SCC(=O)Nc2ccc(C(=O)N3CCC(O)CC3)cc2Cl)c2ccccc12` [compound 134], the EC50 was < 50 nM. For `CC[C@H](C)[C@H](NC(=O)c1ccc(NC(=O)CSc2nnc(Br)n2-c2ccc(C3CC3)c3ccccc23)c(Cl)c1)C(=O)O` [compound 135], the EC50 was > 100 nM. For `CCc1ccc(-n2c(Br)nnc2SCC(=O)Nc2ccc(C(=O)NCC(C)(C)N)cc2Cl)c2ccccc12` [compound 136], the EC50 was < 50 nM. For `CCc1ccc(-n2c(Br)nnc2SCC(=O)Nc2ccc(C(=O)NCCCCO)cc2Cl)c2ccccc12` [compound 137], the EC50 was < 50 nM. `CCc1ccc(-n2c(Br)nnc2SCC(=O)Nc2ccc(C(=O)N3CCC(CN)CC3)cc2Cl)c2ccccc12` [compound 138] was tested, and the EC50 was < 50 nM. For `CCc1ccc(-n2c(Br)nnc2SCC(=O)Nc2ccc(C(=O)NCC3CCNCC3)cc2Cl)c2ccccc12` [compound 139], the EC50 was 50 to 100 nM. `CCc1ccc(-n2c(Br)nnc2SCC(=O)Nc2ccc(C(=O)N[C@@H](CO)C(=O)OC)cc2Cl)c2ccccc12` [compound 140] was tested, and the EC50 was < 50 nM. For `Cc1cc(S(N)(=O)=O)ccc1NC(=O)C(C)Sc1nnc(Br)n1-c1c(C)ccc2ccccc12` (stereo not drawn) [compound 142], the EC50 was > 100 nM.
